Assay results published in patent US8232283B2, “Raf inhibitors” (Forma Therapeutics, Inc., priority 2008, dated 2012).
Where two headings read alike, the source gives them in different places.

Legend:
[1] = test system: HT-29 [B-Raf V600E mutant]; experiment: Anti-proliferative activity, SRB assay, 72 hours; format: cell-based; details: Homo sapiens, read-out: CELLULAR IC50 [μM] HT-29 [B-Raf V600E mutant]
Summary of the method: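 HT-29 cells, plated 24 h before dosing, exposed to a concentration range of compound for 72 h. Proliferation measured by sulforhodamine B staining after TCA fixation, absorbance at 520 nm; % inhibition versus DMSO-treated cells used to estimate IC50.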

B-Raf = B-Raf (Homo sapiens, UniProt P15056); experiment: SelectScreen Kinase Profiling Service (Invitrogen), IC50 with or without 5 h preincubation of kinase/test compound; format: biochemical
Chain of B-Raf (P15056 whole entry): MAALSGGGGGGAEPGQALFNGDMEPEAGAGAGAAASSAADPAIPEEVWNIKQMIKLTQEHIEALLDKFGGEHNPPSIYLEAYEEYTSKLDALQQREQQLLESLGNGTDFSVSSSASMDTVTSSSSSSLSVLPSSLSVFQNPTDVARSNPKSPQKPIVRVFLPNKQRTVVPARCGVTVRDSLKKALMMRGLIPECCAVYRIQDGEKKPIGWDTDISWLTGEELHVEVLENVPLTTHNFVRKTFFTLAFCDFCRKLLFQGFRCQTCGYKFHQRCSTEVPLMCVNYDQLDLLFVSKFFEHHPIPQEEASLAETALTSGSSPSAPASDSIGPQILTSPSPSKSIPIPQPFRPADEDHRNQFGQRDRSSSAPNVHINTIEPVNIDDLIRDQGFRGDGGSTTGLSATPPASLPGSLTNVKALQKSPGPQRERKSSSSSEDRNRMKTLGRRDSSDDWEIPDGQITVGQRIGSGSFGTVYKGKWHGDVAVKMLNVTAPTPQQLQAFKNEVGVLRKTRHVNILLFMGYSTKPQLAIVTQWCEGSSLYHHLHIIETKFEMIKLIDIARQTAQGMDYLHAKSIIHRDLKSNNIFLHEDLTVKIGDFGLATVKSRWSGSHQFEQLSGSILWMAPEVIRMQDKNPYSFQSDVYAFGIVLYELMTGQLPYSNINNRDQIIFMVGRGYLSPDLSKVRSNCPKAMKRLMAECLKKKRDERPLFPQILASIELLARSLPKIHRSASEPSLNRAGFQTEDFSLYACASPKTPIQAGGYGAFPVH
Procedure: (§1) d) B-Raf/B-Raf (V600E) (SelectScreen™ Assay)
(§2) Selected compound of the present invention were tested in the Select Screen™ Kinase Profiling Service (Invitrogen Corporation, Madison, Wis. 53719, USA) against B-Raf and the B-Raf (V600E) [“V599E” in terminology used by Invitrogen], under conditions of non-disclosure, non-dissemination and non-use.
(§3) In brief, compounds 11 and 39 (see Table 1) were tested at Invitrogen against B-Raf and the B-Raf (V600E), either with or without preincubation of kinase/test compound for 5 hours.

B-Raf (V600E) = B-Raf (V600E) (Homo sapiens, UniProt P15056, V600E); experiment: as above; format: biochemical
Chain of B-Raf (V600E) (P15056 whole entry V600E): as the sequence (P15056 whole entry) above, with V600E counted along it
Procedure: as §1, §2, §3

A-431 [B-Raf wildtype] = experiment: Anti-proliferative activity, SRB assay, 72 hours; format: cell-based; details: Homo sapiens, read-out: CELLULAR IC50 [μM] A-431 [B-Raf wildtype]
Summary of the method: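 Cells seeded 24 h before compound, then exposed to a concentration range for 72 h. TCA-fixed, stained with sulforhodamine B, bound dye solubilized in 10 mM Trizma and read at OD520. IC50 from % inhibition of proliferation vs DMSO-treated cells.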

C-Raf = target: T1, C-Raf (Homo sapiens, UniProt P04049); experiment: Biochemical inhibition, standard selectivity panel (Proteros); design: dose or concentration left out as unconfirmed
T1 construct: purchased Proteros biostructures GmbH (selectivity panel service)
T1 sequence (P04049 whole entry): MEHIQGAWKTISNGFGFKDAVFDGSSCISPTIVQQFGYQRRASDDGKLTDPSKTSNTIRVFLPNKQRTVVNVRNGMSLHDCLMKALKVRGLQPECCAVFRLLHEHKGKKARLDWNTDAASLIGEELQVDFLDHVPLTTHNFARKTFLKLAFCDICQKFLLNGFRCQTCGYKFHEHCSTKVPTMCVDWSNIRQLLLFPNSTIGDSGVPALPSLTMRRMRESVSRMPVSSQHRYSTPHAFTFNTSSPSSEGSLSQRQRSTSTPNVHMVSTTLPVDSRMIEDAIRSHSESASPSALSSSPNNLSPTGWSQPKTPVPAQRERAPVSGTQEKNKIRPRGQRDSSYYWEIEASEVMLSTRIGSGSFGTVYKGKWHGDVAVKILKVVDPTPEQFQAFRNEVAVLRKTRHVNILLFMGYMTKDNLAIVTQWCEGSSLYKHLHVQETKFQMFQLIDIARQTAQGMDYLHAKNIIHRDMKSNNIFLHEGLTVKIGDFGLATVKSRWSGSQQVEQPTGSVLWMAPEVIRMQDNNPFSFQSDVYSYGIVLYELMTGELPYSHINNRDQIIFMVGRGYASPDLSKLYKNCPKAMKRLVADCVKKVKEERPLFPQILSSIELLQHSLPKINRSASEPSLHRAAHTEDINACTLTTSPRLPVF
Procedure: (§4) For example, selected compound of the present invention were tested in a standard selectivity panel including c-Raf, p38, and 22 other kinases (Proteros biostructures GmbH, Martinsried/Munich, Germany), under conditions of non-disclosure, non-dissemination and non-use.
(§5) In brief, selected compounds of the present invention were tested […] in triplicates against c-Raf, p38 as well as against Ab1, Akt1, Aur A, c-Kit, c-Raf, Cdk1/CycB, Chk1, FGFR3, Flt3, Fyn, IGF1-R, INSR, Lyn, MAPK-ERK1, PAK-4, PKCalpha, Plk1, Ret, ROCK2, RSK 1, c-Src, TIE2, and VEGF-R2.

p38 = target: T2, p38 (Homo sapiens, UniProt Q16539); experiment: as above; design: dose or concentration left out as unconfirmed
T2 construct: purchased Proteros biostructures GmbH (selectivity panel service)
T2 sequence (Q16539 whole entry): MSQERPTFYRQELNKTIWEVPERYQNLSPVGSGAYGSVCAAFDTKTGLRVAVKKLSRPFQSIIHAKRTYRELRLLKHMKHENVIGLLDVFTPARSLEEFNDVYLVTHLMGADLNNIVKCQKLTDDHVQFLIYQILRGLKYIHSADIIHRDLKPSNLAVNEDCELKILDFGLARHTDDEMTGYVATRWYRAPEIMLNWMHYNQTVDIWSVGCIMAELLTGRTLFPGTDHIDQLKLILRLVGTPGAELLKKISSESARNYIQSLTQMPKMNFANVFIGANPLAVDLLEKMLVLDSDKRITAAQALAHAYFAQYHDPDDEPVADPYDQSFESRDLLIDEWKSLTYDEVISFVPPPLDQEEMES
Procedure: as §4, §5

IC50 [1]: < 5 µM
IC50 (B-Raf; 5 h preincubation of kinase/test compound, read-out: IC50 [nM] B-Raf 5 h preincub.): < 10 nM
IC50 (B-Raf; without preincubation of kinase/test compound, read-out: IC50 [nM] B-Raf w/o preincub.): < 10 nM
IC50 (B-Raf (V600E); 5 h preincubation of kinase/test compound, read-out: IC50 [nM] B-Raf (V600E) 5 h preincub.): < 5 nM
IC50 (B-Raf (V600E); without preincubation of kinase/test compound, read-out: IC50 [nM] B-Raf (V600E) w/o preincub.): < 5 nM
IC50 (A-431 [B-Raf wildtype]): > 10 µM
inhibition (C-Raf): > 70%
inhibition (p38): > 70%
Compound: COn1c(=O)c(-c2cc(NC(=O)c3cccc(C(F)(F)F)c3F)ccc2Cl)cc2cnc(NCCN(C)C)nc21 [Compound 39, N-{4-Chloro-3-[2-(2-dimethylamino-ethylamino)-8-methoxy-7-oxo-7,8-dihydro-pyrido[2,3-d]pyrimidin-6-yl]-phenyl}-2-fluoro-3-trifluoromethyl-benzamide]
